Laboratory results from patent US20210008075A1, “PEDIATRIC DOSING FOR TREATMENT OF CANCER WITH AN EZH2 INHIBITOR” (Epizyme, Inc., priority 2015, published 2021).
Entries after “also recorded” stand apart in the source; their conditions may differ. Where two headings read alike, the source gives them in different places.

What was measured:
[1] = tested on: ATRX mutant SCLC lines NCI-H446, SW1271 and NCI-H841; assay: Response of ATRX mutant SCLC lines; type: cell-based
Text: FIGS. 8A-8C are three graphs establishing that ATRX mutant SCLC lines NCI-H446 (FIG. 8A), SW1271 (FIG. 8B) and NCI-H841 (FIG. 8C) are responding to Compound D.

[2] = tested on: G401 SNF mutant cell line; assay: Soft agar growth, 7 days; type: cell-based; conditions: after 7 days
Text: FIGS. 3A-3D are a series of bar graphs showing that G401 SNF mutant cell line is responding to Compound D after 7 days in soft agar compared to wild type cells RD.

[3] = tested on: SNF5 mutant cell lines A204, G401 and G402; assay: Response of SNF5 mutant versus wild type cell lines; type: cell-based
SCLC line NCI-H841 = assay: Morphology of SCLC line by microscopy; type: cell-based; conditions: 4.1E-02 uM or 3.3 uM
[4] = tested on: LNCAP prostate cancer cells; assay: LNCAP cell growth inhibition in vitro; type: cell-based
BT-16 ATRT cell line = assay: Surviving fraction after 2Gy radiation; type: cell-based
Text: FIG. 25A is a pair of graphs showing a surviving fraction of untreated or DZNEP-treated ATRT cells (from a BT-16 ATRT cell line) exposed to 2Gy radiation.

UPN737 ATRT cell line = assay: Surviving fraction after 2Gy radiation; type: cell-based
Text: FIG. 25B is a pair of graphs showing a surviving fraction of untreated or DZNEP-treated ATRT cells (from a UPN737 ATRT cell line, “737”) exposed to 2Gy radiation.

[5] = tested on: atypical teratoid rhabdoid tumors (ATRTs); assay: ATRT cell self-renewal; type: cell-based; conditions: up to 7 or 10 days post-treatment
Text: FIG. 24A is a series of photographs showing control or EZH2 inhibitor-treated (DNZep-treated) atypical teratoid rhabdoid tumors (ATRTs) at 1, 3, 5, and 7 days post-treatment.
FIG. 24D is a series of photographs showing control or EZH2 inhibitor-treated (DNZep-treated) atypical teratoid rhabdoid tumors (ATRTs) at 3, 5, 8 and 10 days post-treatment.

Medulloblastoma cells = assay: Medulloblastoma cell growth, total cells per milliliter counted; type: cell-based; conditions: versus DMSO control, counted each day for 10 days; tazemetostat 0.5, 2 and 6 μM
Text: The total cells per milliliter of culture were counted each day for 10 days.

[6] = tested on: G401 xenografts (malignant rhabdoid tumor model); assay: G401 xenograft tumor regression; type: in vivo, SCID mice; conditions: twice daily (BID) administration at the indicated doses; listed as Compound A
Description: Data represent the mean values±SEM (n=8). Compound administration was stopped on day 28. (FIG. 5C) EZH2 target inhibition in G401 xenograft tumor tissue collected from a parallel cohort of mice on day 21. […] Horizontal lines represent group mean values. BLLQ=below lower limit of quantification. (FIG. 5D, FIG. 5E) Immunohistochemical staining of tumor histone methylation of tumor samples from the vehicle treated (FIG. 5D) and Compound A treated (FIG. 5E) (at 125 mg/kg) mice.
Data are presented as mean values±SEM (n=16 until day 21, n=8 from day 22 to 60). […] (FIG. 15C) Tumor weights of 8 mice euthanized on day 21. ****p<0.0001, Fisher's exact test. (FIG. 15D) Plasma was collected 5 min before and 3 h after dosing of Compound A on day 21, and compound levels were measured by LC-MS/MS. Animals were euthanized, and tumors were collected 3 h after dosing on day 21. Tumor homogenates were generated and subjected to LC-MS/MS analysis to determine Compound A concentrations. Note that tumor compound levels could not be determined from all animals especially in the higher dose groups because the xenografts were too small on day 21. Dots represent values for the individual animals; horizontal lines represent group mean values.
Compound administration was stopped on day 28 and tumors were allowed to re-grow until they reached 2000 mm^3 (data shown as mean values±SEM, n=8). […]

[7] = tested on: G401 SNF5 mutant cell line; assay: CellTiter-Glo Luminescent Cell Viability Assay after 7 day pretreatment; type: cell-based; conditions: pretreated for 7 days, replated on day 0
Description: FIGS. 4A-4D are four graphs showing that G401 SNF5 mutant cell line is sensitive to Compound A in vitro. Wild type cell line SJCRH30 (FIG. 4A) and RD (FIG. 4C) and SNF5 mutant cell line G401 (FIG. 4B) and A204 (FIG. 4D) were pretreated for 7 days with indicated concentrations of Compound A and replated on day 0. Cell viability was determined by CellTiter-Glo® Luminescent Cell Viability Assay.

cellular H3K27Me3 = assay: Cellular histone methylation in G401 and RD cells; type: cell-based
Description: FIGS. 10A-10C are a series of graphs showing effects of Compound A on cellular global histone methylation and cell viability.
(FIG. 12A) Cell lysates were analyzed by immunoblot with antibodies specific to SMARCB1, EZH2 and Actin (loading control). […] Cells were incubated with Compound A for 4 days, and acid-extracted histones were analyzed by immunoblot.

[8] = Oral bioavailability (general statement); conditions: in vivo
[9] = tested on: SMARCB1-deleted MRT cells (G401); assay: Cell cycle analysis (flow cytometry) and apoptosis (TUNEL assay); type: cell-based; conditions: 1 μM, up to 14 days
Description: Cell cycle analysis (by flow cytometry) and determination of apoptosis (by TUNEL assay) in RD (FIG. 13A) or G401 cells (FIG. 13B) during incubation with either vehicle or 1 μM Compound A for up to 14 days. […] Data are represented as mean values±SEM (n=2). The DMSO control values shown are the average±SEM from each time point. Cells were split and re-plated on days 4, 7 and 11 at the original seeding density.

[10] = tested on: primary medulloblastoma cells; conditions: for primary medulloblastoma cell growth ex vivo: slice culture treated for 4 days
Description: A slice culture of medulloblastoma was freshly isolated from a subject.
A patient having medulloblastoma underwent surgery to remove a slice of tumor tissue for testing. The medulloblastoma slice was cultured ex vivo on tissue supporting inserts (FIG. 28A). […] Following the treatment period, the cells of the slice culture were treated with BrdU for 4 hours prior to disaggregation and sorting by flow cytometry.

SMARCB1 regulated genes = assay: Gene expression by qPCR and cell morphology; type: cell-based; conditions: 1 μM; 2, 4 and 7 days (G401, RD); 14 days (G402)
Description: (FIG. 14A) Basal expression of SMARCB1 regulated genes in G401 SMARCB1-deleted cells, relative to RD control cells (measured by qPCR, n=2). (FIGS. 14B-14L) G401 and RD cells were incubated with either DMSO or 1 μM Compound A for 2, 4 and 7 days. Gene expression was determined by qPCR (n=2) and is expressed relative to the DMSO control of each time point. FIGS. 14B-14K correspond to genes GLI1, PTCh1, DOCK4, CD133, PTPRK, BIN1, CDKN1A, CDKN2A, EZH2, and MYC, respectively. (FIG. 14L) G402 cells were incubated with either DMSO (left panel) or 1 μM Compound A (right panel) for 14 days. Cells were split and re-plated to the original seeding density on day 7.

[11] = PBPK model (Gastroplus) prediction of adult steady-state PK; conditions: adults, 100-1600 mg BID
ATRT = ATRT in vivo, percent survival
[12] = Phase 1 clinical trial, observed steady-state PK in adults; conditions: for CL/F Observed: adults, steady-state; for AUC(0-t) / Cmax: human, in vivo, po
[13] = 500 nM or 2 μM for 4 days, versus untreated control

## CCN(c1cc(-c2ccc(CN3CCOCC3)cc2)cc(C(=O)NCc2c(C)cc(C)[nH]c2=O)c1C)[C@H]1CC[C@H](N(C)C)CC1 [Compound D]
[1]
  response of ATRX mutant SCLC lines: responding
[2]
  response in soft agar compared to wild type cells RD: responding
[3]
  response of SNF5 mutant cell lines compared to wild type cell lines RD and SJCRH30: selectively respond
SCLC line NCI-H841
  cell morphology: changes morphology
[4]
  cell growth inhibition: dose-dependent cell growth inhibition

## Nc1nccc2c1ncn2C1C=C(CO)C(O)C1O (centres unmarked) [DNZep]
BT-16 ATRT cell line
  radio-sensitization (surviving fraction): radio-sensitizes ATRT
UPN737 ATRT cell line
  radio-sensitization (surviving fraction): radio-sensitizes ATRT
[5]
  ATRT cell self-renewal: suppresses ATRT cell self-renewal

## CC[C@H](C)n1cc(C)c2c(C(=O)NCc3c(C)cc(C)[nH]c3=O)cc(-c3ccc(N4CCNCC4)nc3)cc21 [GSK-126, reference compound]
Medulloblastoma cells
  medulloblastoma cell growth (total cells per milliliter): decrease medulloblastoma cell growth

## CCCc1cc(C)[nH]c(=O)c1CNC(=O)c1cc(-c2ccc(N3CCN(C(C)C)CC3)nc2)cc2c1cnn2C(C)C [UNC 1999, reference compound]
Medulloblastoma cells
  medulloblastoma cell growth (total cells per milliliter): decrease medulloblastoma cell growth

## CCN(c1cc(-c2ccc(CN3CCOCC3)cc2)cc(C(=O)NCc2c(C)cc(C)[nH]c2=O)c1C)C1CCOCC1 [tazemetostat]
Medulloblastoma cells
  medulloblastoma cell growth (total cells per milliliter): significant decrease; also recorded: decrease medulloblastoma cell growth
[6]
  tumor response in G401 xenografts: durable regressions; also recorded: Tumor regressions; also recorded: eradicates SMARCB1-deleted MRT xenografts
[7]
  sensitivity of cell viability in vitro: sensitive
Cellular H3K27Me3
  cellular H3K27Me3 levels: Concentration-dependent inhibition
Cellular H3K27Me3; 4 days, immunoblot
  specificity for inhibition of cellular histone methylation: Selective inhibition of cellular H3K27 methylation
[8]
  oral bioavailability: orally bioavailable
[9]
  G1 arrest: G1 arrest was observed as of day 7
[9]; TUNEL
  apoptosis: apoptosis was induced as of day 11
[10]; [13]
  proportion of cells in G0/G1 stage: increased proportion
  proportion of cells in G2/M stage: decreased proportion
[10]
  primary medulloblastoma cell growth ex vivo: inhibits proliferation/growth of medulloblastoma cells
[10]; listed as Tazemetostat
  primary medulloblastoma cell growth ex vivo: decreases primary medulloblastoma cell growth ex vivo
SMARCB1 regulated genes
  expression of SMARCB1 regulated genes and cell morphology: induces changes in expression of SMARCB1 regulated genes and cell morphology
[11]
  deviation of predicted mean steady-state AUC0-t from observed: ≤ 30%
  deviation of predicted oral clearance (CL/F) from observed: ≤ 30%
ATRT
  ATRT in vivo (percent survival versus vehicle): decreases ATRT in vivo
[12]; 100 mg BID p.o. (n = 6)
  CL/F Observed: 309 L/h
[12]; 200 mg BID p.o. (n = 3)
  CL/F Observed: 198 L/h
[12]; 400 mg BID p.o. (n = 3)
  CL/F Observed: 264 L/h
[12]; 800 mg BID p.o. (n = 6)
  CL/F Observed: 152 L/h
[12]; 1600 mg BID p.o. (n = 6)
  CL/F Observed: 180 L/h
[12]; 100 mg
  AUC(0-t): 348 ng·h/mL
  Cmax: 99 ng/mL
[12]; 200 mg
  AUC(0-t): 1010 ng·h/mL
  Cmax: 237 ng/mL
[12]; 400 mg
  AUC(0-t): 1510 ng·h/mL
  Cmax: 313 ng/mL
[12]; 800 mg
  AUC(0-t): 4630 ng·h/mL
  Cmax: 818 ng/mL
[12]; 1600 mg
  AUC(0-t): 7880 ng·h/mL
  Cmax: 1480 ng/mL
